The values below come from ChEMBL document CHEMBL1132687, “Synthesis and enantiopharmacology of new AMPA-kainate receptor agonists” (J Med Chem, 1999).

Data set [1] in a line: physchem. The note with it: water.
A short description of data set [2]: The dissociation constant at ammonium group in water at 20 degree Centigrade. The note with it: read-out: pKa3. Type of data set: ADME.
Data set [3] is described as follows: physchem. The note with it: water. The source holds these as a separate data set.
Description: The dissociation constant at omega-carboxyl or hydroxyl group in water at 20 degree Centigrade.
For data set [4], the species on record is Rattus norvegicus. The data set can be described thus: Electropharmacology on rat cortical slice preparation for EAA-evoked depolarizations; Depolarization evoked by the compound is partially antagonised by 5 uM of NBQX and fully antagonised by 20 uM of NBQX. Type of data set: functional.
Data set [5] has as its target Glutamate receptor ionotropic, kainate. Put plainly: Binding affinity against Ionotropic glutamate receptor kainate using [3H]KAIN as radioligand. The format is protein-complex assay.
In data set [6] the target is Glutamate receptor ionotropic, AMPA (Rattus norvegicus, UniProt P19490+P19491+P19492+P19493).
Description: Binding affinity against Ionotropic glutamate receptor AMPA using [3H]AMPA as radioligand.
In data set [7] the test system is CHO. Put plainly: Affinity at Metabotropic glutamate receptor (Glu1-alpha,Glu2,Glu4a) expressed in CHO cells; Not significant activity up to 1 mM concentration. The format is cell-based.
The target of data set [8] is Glutamate NMDA receptor. Put plainly: Binding affinity against N-methyl-D-aspartate glutamate receptor using [3H]-CPP as radioligand. The format is protein-complex assay.
The species entered for data set [9] is Rattus norvegicus. Put plainly: Electropharmacology on rat cortical slice preparation for EAA-evoked depolarizations; Depolarization evoked by the compound is antagonised by 10 uM of CPP. Type of data set: functional.
A short description of data set [10]: physchem. The settings on record: water. This is another data set of the same source.
The species named for data set [11] is Rattus norvegicus. The data set can be described thus: Electropharmacology on rat cortical slice preparation for EAA-evoked depolarizations;Depolarization evoked by the compound is fully antagonised by 5 uM of NBQX. Type of data set: functional.
The species named for data set [12] is Rattus norvegicus. The data set can be described thus: Electropharmacology on rat cortical slice preparation for EAA-evoked depolarizations;. Type of data set: functional.
Data set [13] is filed under the species Rattus norvegicus. The data set can be described thus: Electropharmacology on rat cortical slice preparation for EAA-evoked depolarizations; Depolarization evoked by the compound is fully antagonised by 5 uM of NBQX. Type of data set: functional.
For data set [14], the species on record is Rattus norvegicus. The data set can be described thus: Electropharmacology on rat cortical slice preparation for EAA-evoked depolarizations;Depolarization evoked by the compound is partially antagonised by 5 uM of NBQX and fully antagonised by 20 uM of NBQX. Type of data set: functional.
Data set [15] can be described thus: The dissociation constant at omega-carboxyl or hydroxyl group iin water at 20 degree Centigrade. (evaluated by Uyeno., Y et. al.). The format is ADME. The note with it: read-out: pKa2.
Data set [16] is described as follows: The dissociation constant at ammonium group in water at 20 degree Centigrade. (evaluated by Uyeno., Y et. al.). Type of data set: ADME. The settings on record: read-out: pKa3.
A short description of data set [17]: The dissociation constant at alpha-carboxyl group in water at 20 degree Centigrade. (evaluated by Uyeno., Y et. al.). Type of data set: ADME. The note with it: read-out: pKa1.
Data set [18] is filed under the species Rattus norvegicus. Put plainly: Electropharmacology on rat cortical slice preparation for EAA-evoked depolarizations; Depolarization evoked by the compound is not antagonised by 5 uM of NBQX but fully antagonised by 20 uM of NBQX. Type of data set: functional.

Activity calls are given as the source filed them. The rule behind the calls is not given here.

As to `O=C(O)C1=NO[C@H]2CN[C@H](C(=O)O)[C@@H]12` (racemic) [listing 1 of 2 here], the pKa is < 2 in data set [1], 7.4 in data set [2] and 2.15 in data set [3]. Moreover, in data set [4], the EC50 worked out at 5.4 µM.
In the case of `O=C1NO[C@H]2[C@@H]1CN[C@@H]2C(=O)O` (racemic), the results for the IC50 in data set [5], in data set [6] and in data set [8] were 45.3 µM, 34.9 µM and > 100 µM, respectively. Also, the pKa was determined as 2 in data set [1], 8.3 in [10] and 5.1 in [3]. Further, the result in data set [7] was inactive. Also, in data set [9], the EC50 is 1000 µM.
For `O=C1NO[C@H]2CN[C@H](C(=O)O)[C@@H]12` (racemic), the values for the IC50 in data set [5], in data set [6] and in data set [8] were 7.9 µM, 42.6 µM and > 100 µM, respectively. Further, the result in data set [7] was inactive. This molecule gave an EC50 in data set [9] of 1000 µM.
In the case of `O=C(O)C1=NO[C@H]2[C@@H]1CN[C@@H]2C(=O)O` (racemic) [listing 1 of 2 here], the pKa in [1] is < 2; in data set [10], 7.3; in [3] it was 2.6. The midpoint of the response in data set [11], the EC50, lay at 284 µM.
`O=C(O)C1=NO[C@H]2CN[C@H](C(=O)O)[C@@H]12` (racemic) [listing 2 of 2 here]: in data set [7], the result was inactive.
For `O=C(O)C1=NO[C@H]2[C@@H]1CN[C@@H]2C(=O)O` (racemic) [listing 2 of 2 here], the outcome in data set [7] was inactive.
Regarding `O=C(O)C1=NO[C@H]2CN[C@H](C(=O)O)[C@@H]12` (stereo in doubt; (+)-6) [listing 1 of 2 here], the IC50 in data set [5] and in data set [6] was > 100 µM each time. In [12], the EC50 was > 1000 µM.
`O=C(O)C1=NO[C@H]2CN[C@H](C(=O)O)[C@@H]12` (stereo in doubt; (+)-6) [listing 2 of 2 here]: the result in [7] was inactive.
As for `O=C(O)C1=NO[C@H]2[C@@H]1CN[C@@H]2C(=O)O` (stereo in doubt; (+)-7) [listing 1 of 2 here], the IC50 turned out to be 67 µM in data set [5] and 11.2 µM in data set [6]. This molecule gave an EC50 in [13] of 251 µM.
`O=C(O)C1=NO[C@H]2[C@@H]1CN[C@@H]2C(=O)O` (stereo in doubt; (+)-7) [listing 2 of 2 here]: in data set [7], the outcome was inactive.
Turning to `O=C(O)C1=NO[C@H]2CN[C@H](C(=O)O)[C@@H]12` (stereo in doubt; (-)-6) [listing 1 of 2 here], the IC50 stood at 0.23 µM in [5] and 0.54 µM in data set [6]. Also, a half-maximal effect in data set [14] (EC50) was put at 3.5 µM.
As to `O=C(O)C1=NO[C@H]2CN[C@H](C(=O)O)[C@@H]12` (stereo in doubt; (-)-6) [listing 2 of 2 here], the outcome in [7] was inactive.
In the case of `O=C(O)C1=NO[C@H]2[C@@H]1CN[C@@H]2C(=O)O` (stereo in doubt; (-)-7) [listing 1 of 2 here], the IC50 in data set [5], in data set [6] and in data set [8] was > 100 µM each time. For the same molecule, the EC50 in data set [12] is > 1000 µM.
Consider `O=C(O)C1=NO[C@H]2[C@@H]1CN[C@@H]2C(=O)O` (stereo in doubt; (-)-7) [listing 2 of 2 here], for which, in [7], the outcome was inactive.
In the case of `N[C@@H](CCC(=O)O)C(=O)O` [GLUTAMIC ACID], the pKa in data set [15] is 4.21; in data set [16], 9.54; in data set [17], 2.39.
Molecule `C=C(C)[C@H]1CN[C@H](C(=O)O)[C@H]1CC(=O)O` [KAINIC ACID] showed an EC50 in data set [18] of 25 µM.
Regarding `CN[C@H](CC(=O)O)C(=O)O` [N-METHYL-D-ASPARTIC ACID (NMDA)], the EC50 in data set [9] turned out to be 11 µM.

Broadly, the EC50 is the concentration giving half of the maximal effect. A higher EC50 goes with a need for much substance. As a reminder, the IC50 is the concentration at which inhibition is half-maximal.
